Values belong to the compound of their own block, whether it stands above or below them.
Key:
[1] = biological target: T1, human D2 dopamine receptor (Homo sapiens, UniProt P14416); experiment: Radioligand binding ([3H]-spiperone) to cloned human D2 receptor, HEK-293 EBNA cell membranes; conditions: 0.7 nM [3H]-spiperone, 1 h at RT, Cheng-Prusoff
T1 construct: expressed in transfected cells; host or cells: HEK-293 EBNA cells, transient transfection; membrane preparation
Procedure: (§1) Membrane Preparation for Human D2, Human D3 and Human 5-HT2A Receptors
(§2) HEK-293 EBNA cells were transiently transfected with expression plasmids encoding for the human D2 or D3 dopamine- or for the human 5-HT2A serotonin receptor, respectively. The cells were harvested 48 h post-transfection, washed three times with cold PBS and stored at −80° C. prior to use. The pellet was suspended in cold 50 mM Tris-HCl buffer containing 10 mM EDTA (pH 7.4) and homogenized with a Polytron (Kinematica AG, Basel, Switzerland) for 20-30 sec at 12.000 rpm. After centrifugation at 48.000×g for 30 min at 4° C., the pellet was resuspended in cold 10 mM Tris-HCl buffer containing 0.1 mM EDTA (pH 7.4), homogenized, and centrifuged as above. This pellet was further resuspended in a smaller volume of ice cold 10 mM Tris-HCl buffer containing 0.1 mM EDTA (pH 7.4) and homogenized with a Polytron for 20-30 sec at 12.000 rpm. The protein content of this homogenate was determined with the Bio-Rad (Bradford) Protein Assay (Biorad Laboratories GmbH, München, Germany) according to the instructions of the manufacturer using gamma globulin as the standard. This homogenate was stored at −80° C. in aliquots and thawed immediately prior to use.
(§3) Radioligand Binding Assay Conditions
(§4) Aliquots of membrane preparations were thawed at RT, resuspended in assay buffer (D2, D3: 50 mM Tris-HCl, 120 mM NaCl, 5 mM MgCl2, 1 mM EDTA, 5 mM KCl, 1.5 mM CaCl2, pH=7.4; 5-HT2A: 50 mM Tris-HCl, 10 mM MgCl2, 1 mM EGTA, pH=7.4), homogenized with a Polytron for 20-30 sec at 12.000 rpm and adjusted to a final concentration of approximately 7.5 μg protein/well (D2, D3) and 15 μg protein/well (5-HT2A), respectively.
(§5) The binding affinity (Ki) of the compounds was determined using radioligand binding. Membranes were incubated in a total volume of 200 μl with a fixed concentration of radioligand (final concentration approximately 0.7 nM [^3H]-spiperone for D2, 0.5 nM [^3H]-spiperone for D3, and 1.1 nM [^3H]-ketanserin for 5-HT2A) and ten concentrations of test compound in ranging between 10 μM-0.1 nM for 1 h at RT. At the end of the incubation, the reaction mixtures were filtered on to unifilter 96-well white microplates with bonded GF/C filters (Packard BioScience, Zürich, Switzerland; preincubated for 1 h in 0.1% polyethylenimine (PEI) in assay buffer) with a Filtermate 196 harvester (Packard BioScience) and washed 3 times with cold assay buffer. The nonspecific binding was determined with equally composed reaction mixtures in the presence of 10 μM unlabeled spiperone. Per well 45 μl of Microscint 40 (Perkin Elmer, Schwerzenbach, Switzerland) was added, plates for sealed, shaken for 20 min and counted for 3 min on a Topcount Microplate Scintillation Counter (Canberra Packard SA, Zürich, Switzerland) with quenching correction.
(§6) The CPM value for each duplicate of a concentration of competing compound was averaged (yl), then the % specific binding was calculated according to the equation (((yl-non-specific)/(total binding-non-specific))×100). Graphs were plotted with the % specific binding using XLfit, a curve fitting program that iteratively plots the data using Levenburg Marquardt algorithm. The single site competition analysis equation used was y=A+((B−A)/(1+((x/C)^D))), where y is the % specific binding, A is the minimum y, B is the maximum y, C is the IC50, x is the log10 of the concentration of the competing compound and D is the slope of the curve (the Hill Coefficient). […] The affinity constant (Ki) was calculated using the Cheng-Prusoff equation Ki=(IC50/1+([L]/Kd), where [L] is the concentration of radioligand and Kd is the dissociation constant of the radioligand at the receptor as determined by the saturation isotherm.

[2] = biological target: T2, human D3 dopamine receptor (Homo sapiens, UniProt P35462); experiment: Radioligand binding ([3H]-spiperone) to cloned human D3 receptor, HEK-293 EBNA cell membranes; conditions: 0.5 nM [3H]-spiperone, 1 h at RT, Cheng-Prusoff
T2 construct: expressed in transfected cells; host or cells: HEK-293 EBNA cells, transient transfection; membrane preparation
Procedure: The ability of the compounds to bind to the 5-HT2A, D3 and D2 receptors was determined using radioligand binding to cloned receptors selectively expressed in HEK-293 EBNA cells.
as §1, §2, §3, §4, §5, §6

[3] = biological target: T3, human 5-HT2A serotonin receptor (Homo sapiens, UniProt P28223); experiment: Radioligand binding ([3H]-ketanserin) to cloned human 5-HT2A receptor, HEK-293 EBNA cell membranes; conditions: 1.1 nM [3H]-ketanserin, 1 h at RT, Cheng-Prusoff
T3 construct: expressed in transfected cells; host or cells: HEK-293 EBNA cells, transient transfection; membrane preparation
Procedure: as §1
as §2, with “The” for “HEK-293 EBNA cells were transiently transfected with expression plasmids encoding for the human D2 or D3 dopamine- or for the human 5-HT2A serotonin receptor, respectively. The”
as §3, §4
The binding affinity (Ki) of the compounds was determined using radioligand binding. […] The nonspecific binding was determined with equally composed reaction mixtures in the presence of 10 μM unlabeled spiperone. Per well 45 μl of Microscint 40 (Perkin Elmer, Schwerzenbach, Switzerland) was added, plates for sealed, shaken for 20 min and counted for 3 min on a Topcount Microplate Scintillation Counter (Canberra Packard SA, Zürich, Switzerland) with quenching correction.
as §6

T1 sequence (P14416 whole entry): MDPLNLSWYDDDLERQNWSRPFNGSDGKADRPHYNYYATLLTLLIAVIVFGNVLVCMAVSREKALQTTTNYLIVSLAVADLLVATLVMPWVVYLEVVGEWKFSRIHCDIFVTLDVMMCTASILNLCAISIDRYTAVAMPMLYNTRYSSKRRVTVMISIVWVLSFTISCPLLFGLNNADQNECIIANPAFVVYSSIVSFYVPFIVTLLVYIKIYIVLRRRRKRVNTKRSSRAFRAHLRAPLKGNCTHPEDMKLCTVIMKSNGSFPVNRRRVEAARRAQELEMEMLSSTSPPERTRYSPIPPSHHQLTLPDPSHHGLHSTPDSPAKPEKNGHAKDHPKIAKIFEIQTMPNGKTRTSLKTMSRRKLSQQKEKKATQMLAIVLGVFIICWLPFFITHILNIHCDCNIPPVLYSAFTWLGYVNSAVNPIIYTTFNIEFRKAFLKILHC
T3 sequence (P28223 whole entry): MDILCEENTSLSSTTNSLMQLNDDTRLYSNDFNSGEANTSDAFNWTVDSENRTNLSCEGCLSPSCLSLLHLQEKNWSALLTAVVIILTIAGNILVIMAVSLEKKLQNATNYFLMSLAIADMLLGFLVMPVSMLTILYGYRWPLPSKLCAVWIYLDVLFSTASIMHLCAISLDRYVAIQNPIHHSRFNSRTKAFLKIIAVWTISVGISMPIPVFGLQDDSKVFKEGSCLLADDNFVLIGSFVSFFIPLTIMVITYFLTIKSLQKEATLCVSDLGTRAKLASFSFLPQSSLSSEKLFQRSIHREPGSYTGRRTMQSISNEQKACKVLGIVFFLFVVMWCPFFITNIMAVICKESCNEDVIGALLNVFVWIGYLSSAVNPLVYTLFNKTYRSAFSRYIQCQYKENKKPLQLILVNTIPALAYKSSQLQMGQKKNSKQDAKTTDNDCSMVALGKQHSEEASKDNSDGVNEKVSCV
T2 sequence (P35462 whole entry): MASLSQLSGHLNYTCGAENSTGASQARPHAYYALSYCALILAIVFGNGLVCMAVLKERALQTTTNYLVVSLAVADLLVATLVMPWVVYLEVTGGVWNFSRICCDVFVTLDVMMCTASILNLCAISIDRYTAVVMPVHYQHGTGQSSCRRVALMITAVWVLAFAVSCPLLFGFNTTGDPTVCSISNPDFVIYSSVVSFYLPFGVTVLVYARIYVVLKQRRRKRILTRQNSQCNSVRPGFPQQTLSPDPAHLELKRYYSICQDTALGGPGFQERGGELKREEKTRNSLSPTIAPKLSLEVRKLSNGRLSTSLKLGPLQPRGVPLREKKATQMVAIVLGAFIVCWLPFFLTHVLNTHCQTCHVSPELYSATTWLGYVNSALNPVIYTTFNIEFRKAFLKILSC

SMILES: O=C(CC1CCC(O)CC1)N[C@H]1CC[C@H](CCN2CCC(C(=O)c3ccc(F)cc3)CC2)CC1 (mixture of isomers) [Example 1, N-trans (4-{2-[4-(4-Fluoro-benzoyl)-piperidin-1-yl]-ethyl}-cyclohexyl)-2-cis/trans (4-hydroxy-cyclohexyl)-acetamide]
Ki [1]: 1490 nM
Ki [2]: 43 nM
Ki [3]: 13 nM

SMILES: O=C(CC1CC(CO)C1)N[C@H]1CC[C@H](CCN2CCC(C(=O)c3ccc(F)cc3)CC2)CC1 (mixture of isomers) [Example 19, N-trans (4-{2-[4-(4-Fluoro-benzoyl)-piperidin-1-yl]-ethyl}-cyclohexyl)-2-cis/trans (3-hydroxymethyl-cyclobutyl)-acetamide]
Ki [1]: 1000 nM
Ki [2]: 28 nM
Ki [3]: 11 nM

SMILES: COCC1CC(CC(=O)N[C@H]2CC[C@H](CCN3CCC(C(=O)c4ccc(F)cc4)CC3)CC2)C1 (mixture of isomers) [Example 20, N-trans(4-{2-[4-(4-Fluoro-benzoyl)-piperidin-1-yl]-ethyl}-cyclohexyl)-2-cis/trans (3-methoxymethyl-cyclobutyl)-acetamide]
Ki [1]: 1360 nM
Ki [2]: 27 nM
Ki [3]: 12 nM

Ki [1]: 1360 nM
Ki [2]: 56 nM
Ki [3]: 12 nM
SMILES: CC1(O)CCC(CC(=O)N[C@H]2CC[C@H](CCN3CCC(C(=O)c4ccc(F)cc4)CC3)CC2)CC1 (mixture of isomers) [Example 22, N-trans (4-{2-[4-(4-Fluoro-benzoyl)-piperidin-1-yl]-ethyl}-cyclohexyl)-2-(4-cis/trans-hydroxy-4-methyl-cyclohexyl)-acetamide]

SMILES: O=C(C[C@H]1CCC[C@@H](O)C1)N[C@H]1CC[C@H](CCN2CCC(C(=O)c3ccc(F)cc3)CC2)CC1 (racemic) [Example 4, rac-N-trans (4-{2-[4-(4-Fluoro-benzoyl)-piperidin-1-yl]-ethyl}-cyclohexyl)-2-cis (3-hydroxy-cyclohexyl)-acetamide]
Ki [1]: 1010 nM
Ki [2]: 43 nM
Ki [3]: 14 nM

SMILES: CO[C@@H]1CCC[C@H](CC(=O)N[C@H]2CC[C@H](CCN3CCC(C(=O)c4ccc(F)cc4)CC3)CC2)C1 (racemic) [Example 5, rac-N-trans (4-{2-[4-(4-Fluoro-benzoyl)-piperidin-1-yl]-ethyl}-cyclohexyl)-2-cis (3-methoxy-cyclohexyl)-acetamide]
Ki [1]: 1190 nM
Ki [2]: 45 nM
Ki [3]: 19 nM

SMILES: O=C(C[C@H]1CC[C@@H](O)C1)N[C@H]1CC[C@H](CCN2CCC(C(=O)c3ccc(F)cc3)CC2)CC1 (racemic) [Example 6, rac-trans-N (4-{2-[4-(4-Fluoro-benzoyl)-piperidin-1-yl]-ethyl}-cyclohexyl)-2-cis (3-hydroxy-cyclopentyl)-acetamide]
Ki [1]: 828 nM
Ki [2]: 35 nM
Ki [3]: 11 nM

SMILES: O=C(C[C@H]1CC[C@H](O)C1)N[C@H]1CC[C@H](CCN2CCC(C(=O)c3ccc(F)cc3)CC2)CC1 (racemic) [Example 7, rac-N-trans (4-{2-[4-(4-Fluoro-benzoyl)-piperidin-1-yl]-ethyl}-cyclohexyl)-2-trans (3-hydroxy-cyclopentyl)-acetamide]
Ki [1]: 807 nM
Ki [2]: 19 nM
Ki [3]: 16 nM

SMILES: CO[C@H]1CC[C@H](CC(=O)N[C@H]2CC[C@H](CCN3CCC(C(=O)c4ccc(F)cc4)CC3)CC2)C1 (racemic) [Example 8, rac-N-trans(4-{2-[4-(4-Fluoro-benzoyl)-piperidin-1-yl]-ethyl}-cyclohexyl)-2-trans (3-methoxy-cyclopentyl)-acetamide]
Ki [2]: 23 nM
Ki [3]: 16 nM

SMILES: CO[C@@H]1CC[C@H](CC(=O)N[C@H]2CC[C@H](CCN3CCC(C(=O)c4ccc(F)cc4)CC3)CC2)C1 (racemic) [Example 9, rac-N-trans (4-{2-[4-(4-Fluoro-benzoyl)-piperidin-1-yl]-ethyl}-cyclohexyl)-2-cis (3-methoxy-cyclopentyl)-acetamide]
Ki [2]: 42 nM
Ki [3]: 6 nM

SMILES: CO[C@@H]1CC[C@H](CC(=O)N[C@H]2CC[C@H](CCN3CCC(C(=O)c4ccc(F)cc4)CC3)CC2)C1 (single isomer, unassigned) [Example 10, N-trans (4-{2-[4-(4-Fluoro-benzoyl)-piperidin-1-yl]-ethyl}-cyclohexyl)-2-((1S,3R)-3-methoxy-cyclopentyl)-acetamide or N-trans (4-{2-[4-(4-fluoro-benzoyl)-piperidin-1-yl]-ethyl}-cyclohexyl)-2-((1R,3S)-3-methoxy-cyclopentyl)-acetamide]
Ki [2]: 56 nM
Ki [3]: 5 nM

SMILES: CO[C@H]1CC[C@@H](CC(=O)N[C@H]2CC[C@H](CCN3CCC(C(=O)c4ccc(F)cc4)CC3)CC2)C1 (single isomer, unassigned) [Example 11, N-trans (4-{2-[4-(4-Fluoro-benzoyl)-piperidin-1-yl]-ethyl}-cyclohexyl)-2-((1R,3S)-3-methoxy-cyclopentyl)-acetamide or N-trans (4-{2-[4-(4-fluoro-benzoyl)-piperidin-1-yl]-ethyl}-cyclohexyl)-2-((1S,3R)-3-methoxy-cyclopentyl)-acetamide]
Ki [2]: 62 nM
Ki [3]: 11 nM

SMILES: CO[C@H]1CC[C@H](CC(=O)N[C@H]2CC[C@H](CCN3CCC(C(=O)c4ccc(F)cc4)CC3)CC2)C1 (single isomer, unassigned) [Example 14, N-trans (4-{2-[4-(4-Fluoro-benzoyl)-piperidin-1-yl]-ethyl}-cyclohexyl)-2-((1S,3S)-3-methoxy-cyclopentyl)-acetamide or N-trans (4-{2-[4-(4-fluoro-benzoyl)-piperidin-1-yl]-ethyl}-cyclohexyl)-2-((1R,3R)-3-methoxy-cyclopentyl)-acetamide]
Ki [2]: 18 nM
Ki [3]: 7 nM

SMILES: CO[C@@H]1CC[C@@H](CC(=O)N[C@H]2CC[C@H](CCN3CCC(C(=O)c4ccc(F)cc4)CC3)CC2)C1 (single isomer, unassigned) [Example 15, N-trans (4-{2-[4-(4-Fluoro-benzoyl)-piperidin-1-yl]-ethyl}-cyclohexyl)-2-((1R,3R)-3-methoxy-cyclopentyl)-acetamide or N-trans (4-{2-[4-(4-fluoro-benzoyl)-piperidin-1-yl]-ethyl}-cyclohexyl)-2-((1S,3S)-3-methoxy-cyclopentyl)-acetamide]
Ki [2]: 34 nM
Ki [3]: 16 nM

From patent US8097637B2, “Benzoyl-piperidine derivatives as dual modulators of the 5-HT2A and D3 receptors” (Hoffmann-La Roche Inc., priority 2007, dated 2012)
